Patent US7635696B2, “Isoxazoline-indole derivatives with an improved antipsychotic and anxiolytic activity” (Janssen Pharmaceutica N.V., priority 2004, dated 2009)
Like-named read-outs stand apart in the source and are kept apart here.

Columns and labels:
human 5HT transporter = biological target: T1, human 5HT transporter (Homo sapiens, UniProt P31645); assay: Binding experiment for 5-HT transporter ([3H]Paroxetine)
T1 construct: host or cells: HEK cells
Experimental: (§1) The interaction of the compounds of Formula (I) with dopamine-receptors, h5HT-transporter and h5HT1A receptor was assessed in in vitro radioligand binding experiments. In general, a low concentration of a radioligand with a high binding affinity for a particular receptor or transporter is incubated with a sample of a tissue preparation enriched in a particular receptor or transporter or with a preparation of cells expressing cloned human receptors in a buffered medium. During the incubation, the radioligand binds to the receptor or transporter. When equilibrium of binding is reached, the receptor bound radioactivity is separated from the non-bound radioactivity, and the receptor- or transporter-bound activity is counted. The interaction of the test compounds with the receptor is assessed in competition binding experiments. Various concentrations of the test compound are added to the incubation mixture containing the receptor- or transporter preparation and the radioligand. The test compound in proportion to its binding affinity and its concentration inhibits binding of the radioligand.
Frozen human 5HT transporter-transfected HEK cells (Perkin Elmer, Brussels) were thawed and briefly homogenised using an Ultra-Turrax T25 homogeniser prior to dilution to an appropriate protein concentration optimised for specific and non-specific binding. [^3H]Paroxetine (NEN, specific activity 20 Ci/mmol) was diluted in Tris-HCl assay buffer containing NaCl and KCl (50 mM, 120 mM and 5 mM, respectively; pH 7.4) at a concentration of 5 nmol/L. Prepared radioligand (25 μl) was then incubated (60 min, 25° C.) with membrane preparations (200 μl) and with 25 μl of either 10% DMSO control, Inipramine (10^−6 mol/L final concentration), or compound of interest. Membrane-bound activity was detected by filtration through a Packard Filtermate harvester onto Unifilterplates pre-soaked in 0.1% PEI, washing with ice-cold assay buffer (3×4 ml). Filters were dried prior to addition of scintillation fluid and then counting in a Topcount scintillation counter. % Specific bound and competition binding curves were calculated using S-Plus software (Insightful).

Human 5HT1A receptor = biological target: T2, Human 5HT1A receptor (Homo sapiens, UniProt P08908); assay: Binding experiment for 5-HT1A receptor ([3H]8OHDPAT)
T2 construct: expressed in transfected cells; host or cells: L929 cells (stably transfected)
T2 sequence (P08908 1-422): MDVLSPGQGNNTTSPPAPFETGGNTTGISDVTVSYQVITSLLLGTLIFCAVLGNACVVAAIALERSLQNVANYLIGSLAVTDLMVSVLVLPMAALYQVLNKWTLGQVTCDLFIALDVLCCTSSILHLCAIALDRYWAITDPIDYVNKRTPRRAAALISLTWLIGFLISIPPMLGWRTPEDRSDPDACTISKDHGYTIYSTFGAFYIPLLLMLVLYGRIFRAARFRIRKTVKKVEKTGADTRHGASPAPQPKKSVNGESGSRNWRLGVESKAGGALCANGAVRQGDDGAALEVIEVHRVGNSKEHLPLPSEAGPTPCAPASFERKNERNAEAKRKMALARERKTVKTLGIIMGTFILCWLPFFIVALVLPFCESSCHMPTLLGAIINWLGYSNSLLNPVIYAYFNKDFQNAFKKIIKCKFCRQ
Experimental: as §1
Human 5HT1A receptor-transfected L929 cells were collected by scraping into ice-cold Tris-HCl buffer (50 mM, pH 7.4). The suspension was centrifuged (23 500×g, 10 min, 4° C.) and pellets stored at −70° C. until required. They were then thawed and briefly homogenised using an Ultra-Turrax T25 homogeniser prior to dilution to an appropriate protein concentration optimised for specific and non-specific binding. [^3H]80HDPAT (NEN, specific activity 127 Ci/mmol) was diluted in Tris-HCl assay buffer containing CaCl2 (50 mM and 4 mM, respectively; pH 7.7) at a concentration of 5 nmol/L. Prepared radioligand (50 μl) was then incubated (30 min, 37° C.) with membrane preparations from L929 cells stably-transfected with the h5HT1A gene construct (400 μl) and with 50 μl of either the 10% DMSO control, spiroxatrine (10^−6 mol/L final concentration), or compound of interest. Membrane-bound activity was detected by filtration through a Packard Filtermate harvester onto Unifilterplates, washing with ice-cold Tris-HCl buffer (3×4 ml), followed by drying. Scintillation fluid was added and membranes were counted in a Topcount scintillation counter. % Specific bound and competition binding curves were calculated using S-Plus software (Insightful).

[1] = biological target: T3, Human Dopamine D2L receptor (Homo sapiens, UniProt P14416); assay: Binding experiment for dopamine D2 receptor ([3H]Spiperone); settings: D2L-transfected CHO cell membranes; for IC50: read-out: pIC50 D2 (converted)
T3 construct: expressed in transfected cells; host or cells: CHO cells
Experimental: as §1
Human Dopamine D2L receptor-transfected CHO cells were collected by scraping into ice-cold Tris-HCl buffer (50 mM, pH 7.4). The suspension was centrifuged (23 500×g, 10 min, 4° C.) and pellets stored at −70° C. until required. They were then thawed and briefly homogenised using an Ultra-Turrax T25 homogeniser prior to dilution to an appropriate protein concentration optimised for specific and non-specific binding. [^3H]Spiperone (NEN, specific activity ˜70 Ci/mmol) was diluted in Tris-HCl assay buffer containing NaCl, CaCl2, MgCl2, KCl (50, 120, 2, 1, and 5 mM respectively, adjusted to pH 7.7 with HCl) at a concentration of 2 nmol/L. Prepared radioligand (50 μl) was then incubated (30 min, 37° C.) with membrane preparations pre-diluted to an appropriate protein concentration (400 μl), and with 50 μl of either the 10% DMSO control, Butaclamol (10^−6 mol/L final concentration), or compound of interest. Membrane-bound activity was detected by filtration through a Packard Filtermate harvester onto Unifilterplates, washing with ice-cold Tris-HCl buffer (50 mM; pH8.0; 3×4 ml). Filters were allowed to dry before adding scintillation fluid and counting in a Topcount scintillation counter. % Specific bound and competition binding curves were calculated using S-Plus software (Insightful).

[2] = transfected HEK cell membranes, [3H]Paroxetine
[3] = transfected L929 cell membranes, [3H]8OHDPAT
[4] = transfected HEK cell membranes, [3H]Paroxetine, read-out: pIC50 5HTT (converted)
[5] = transfected L929 cell membranes, [3H]8OHDPAT, read-out: pIC50 5-HT1A (converted)

T1 sequence (P31645 whole entry): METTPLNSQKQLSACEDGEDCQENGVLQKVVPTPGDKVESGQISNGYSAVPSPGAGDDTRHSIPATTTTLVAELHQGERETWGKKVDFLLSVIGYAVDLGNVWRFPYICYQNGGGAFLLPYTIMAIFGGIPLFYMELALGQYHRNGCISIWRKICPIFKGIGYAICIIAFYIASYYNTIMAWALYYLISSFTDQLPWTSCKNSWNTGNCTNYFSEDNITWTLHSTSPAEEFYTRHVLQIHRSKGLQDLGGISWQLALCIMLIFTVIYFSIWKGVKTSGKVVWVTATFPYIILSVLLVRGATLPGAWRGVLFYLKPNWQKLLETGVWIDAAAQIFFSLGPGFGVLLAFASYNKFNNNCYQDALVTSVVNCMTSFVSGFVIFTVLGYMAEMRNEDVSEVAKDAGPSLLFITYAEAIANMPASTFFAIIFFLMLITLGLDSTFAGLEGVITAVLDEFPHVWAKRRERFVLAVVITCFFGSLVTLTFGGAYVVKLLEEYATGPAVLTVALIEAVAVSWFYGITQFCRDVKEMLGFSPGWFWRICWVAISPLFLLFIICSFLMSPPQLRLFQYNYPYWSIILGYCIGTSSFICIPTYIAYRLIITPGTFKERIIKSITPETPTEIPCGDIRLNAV
T3 sequence (P14416 whole entry): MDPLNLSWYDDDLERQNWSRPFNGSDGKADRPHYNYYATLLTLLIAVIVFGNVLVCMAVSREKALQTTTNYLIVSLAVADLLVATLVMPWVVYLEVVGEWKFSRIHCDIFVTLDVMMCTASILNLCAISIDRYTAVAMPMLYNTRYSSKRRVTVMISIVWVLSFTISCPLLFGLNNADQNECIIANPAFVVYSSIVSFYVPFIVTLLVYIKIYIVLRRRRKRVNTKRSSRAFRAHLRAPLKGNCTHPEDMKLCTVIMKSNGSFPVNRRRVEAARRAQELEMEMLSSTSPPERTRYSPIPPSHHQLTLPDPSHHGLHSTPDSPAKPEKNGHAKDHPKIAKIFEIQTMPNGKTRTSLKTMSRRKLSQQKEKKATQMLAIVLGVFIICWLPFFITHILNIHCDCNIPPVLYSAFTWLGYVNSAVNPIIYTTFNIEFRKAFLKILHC

Row | SMILES | pIC50 5HTT (human 5HT transporter; [2]) | pIC50 5-HT1A (Human 5HT1A receptor; [3]) | pIC50 D2 [1] | IC50 [1] [nM] | IC50 (human 5HT transporter; [4]) [nM] | also measured
1 | CCNC(=O)OCCOc1cc2c(cc1OC)C1=NOC(CN3CCC(c4c[nH]c5ccc(F)cc45)CC3)C1CO2 (racemic) [Compound 50] | 6.9 | 8.6 | 6.8 |  |  | 
2 | COc1cc2c(cc1OC)C1=NO[C@@H](CN3CC=C(c4cn(C)c5ccccc45)CC3)[C@@H]1CO2 (single isomer, unassigned) [Compound 34] |  |  |  | 2000 |  | IC50 (human 5HT transporter): 63.1 nM; IC50 (Human 5HT1A receptor): 20 nM
3 | Fc1ccc2[nH]cc(C3=CCN(CC4ON=C5c6ccc(NCCN7CCCC7)cc6OCC54)CC3)c2c1 (racemic) [Compound 56] | 8.1 | 8.1 | 6.8 |  |  | 
4 | COc1cc2c(cc1OC)C1=NOC(CN3CC=C(c4c[nH]c5ccc(NS(C)(=O)=O)cc45)CC3)C1CO2.O=C(O)C(F)(F)F (racemic) [Compound 43] | <5 | 8.7 | 6.0 |  |  | 
5 | COc1cc2c(cc1OC)C1=NOC(CN3CCC(c4c[nH]c5cc(F)ccc45)CC3)C1CO2 (single isomer, unassigned) [Compound 36] | 6.8 | 8.0 | 7.5 |  |  | 
6 | COCC(=O)OCCOc1cc2c(cc1OC)C1=NOC(CN3CCC(c4c[nH]c5ccc(F)cc45)CC3)C1CO2 (racemic) [Compound 49] | 6.9 |  | 6.7 |  |  | 
7 | COc1cc2c(cc1OC)C1=NOC(CN3CCC(c4coc5cc(F)ccc45)CC3)C1CO2 (stereo not drawn) [Compound 59] |  |  |  | 100 | 79.4 | IC50 (Human 5HT1A receptor; [5]): 15.8 nM
8 | CCNC(=O)Nc1ccc2[nH]cc(C3=CCN(CC4ON=C5c6cc(OC)c(OC)cc6OCC54)CC3)c2c1 (racemic) [Compound 37] |  |  |  | > 10000 | > 10000 | IC50 (Human 5HT1A receptor; [5]): 7.94 nM
9 | COc1cc2c(cc1OC)C1=NOC(CN3CCC(c4c[nH]c5cc(F)ccc45)CC3)C1CO2 (single isomer, unassigned) [Compound 35] | 7.3 | 6.4 | 6.9 |  |  | 
10 | Nc1ccc2c(c1)OCC1C2=NOC1CN1CC=C(c2c[nH]c3ccc(F)cc23)CC1 (racemic) [Compound 61] | 6.9 | 7.3 |  |  |  | 
11 | COc1cc2c(cc1OC)C1=NOC(CN3CC=C(c4c[nH]c5ccc(N)cc45)CC3)C1CO2 (stereo not drawn) [Compound 33] |  |  |  | 1260 | 631 | IC50 (Human 5HT1A receptor; [5]): 12.6 nM
12 | Fc1ccc2[nH]cc(C3=CCN(CC4ON=C5c6ccc(N7CCOCC7)cc6OCC54)CC3)c2c1 (racemic) [Compound 55] | 7.5 | 7.8 | 6.3 |  |  | 
13 | COc1cc2c(cc1OCCO)OCC1C2=NOC1CN1CCC(c2c[nH]c3ccc(F)cc23)CC1 (racemic) [Compound 47] |  |  |  | 100 | 398 | 
14 | COCCOCOc1ccc2[nH]cc(C3=CCN(CC4ON=C5c6cc(OC)c(OC)cc6OCC54)CC3)c2c1 (stereo not drawn) [Compound 62] |  |  |  | > 10000 | > 10000 | IC50 (Human 5HT1A receptor; [5]): 63.1 nM
15 | COCCOCOc1cc2c(cc1OC)C1=NOC(CN3CC=C(c4c[nH]c5ccc(F)cc45)CC3)C1CO2 (racemic) [Compound 63] | 7.6 | 6.0 | 7.9 |  |  | 
16 | Fc1ccc2c(C3CCN(CC4ON=C5c6ccc(N7CCOCC7)cc6OCC54)CC3)c[nH]c2c1 (racemic) [Compound 52] | 7.4 | 7.5 | 7.5 |  |  | 
17 | COc1cc2c(cc1OC)C1=NOC(CN3CCC(Cc4c[nH]c5ccc(F)cc45)CC3)C1CO2 (racemic) [Compound 57] | 8.3 | 6.4 | 6.3 |  |  | 
18 | CCOC(=O)C(=O)Nc1ccc2[nH]cc(C3=CCN(CC4ON=C5c6cc(OC)c(OC)cc6OCC54)CC3)c2c1 (racemic) [Compound 42] | <5.5 | 8.2 | <5 |  |  | 
19 | COc1cc2c(cc1OC)C1=NOC(CN3CCC(c4c[nH]c5ccc(Br)cc45)CC3)C1CO2 (racemic) [Compound 53] | 6.4 |  | 6.7 |  |  | 
20 | COc1cc2c(cc1OC)C1=NO[C@@H](CN3CCC(n4ccc5ccccc54)CC3)[C@@H]1CO2 (racemic) [Compound 58] |  |  |  | 501 | 631 | IC50 (Human 5HT1A receptor): 25.1 nM
21 | COCC(=O)Nc1ccc2[nH]cc(C3=CCN(CC4ON=C5c6cc(OC)c(OC)cc6OCC54)CC3)c2c1 (racemic) [Compound 41] | <5 | 8.3 | <5 |  |  | 
22 | CC(=O)Nc1ccc2c(c1)OCC1C2=NOC1CN1CCC(c2c[nH]c3ccc(F)cc23)CC1 (stereo not drawn) [Compound 46] |  |  |  | 316 | 50.1 | 
23 | COc1cc2c(cc1OC)C1=NOC(CN3CC=C(c4c[nH]c5ccc(NC(=O)Nc6ccccc6)cc45)CC3)C1CO2 (racemic) [Compound 38] | <5 | 8.4 | <5 |  |  | 
24 | COc1cc2c(cc1OC)C1=NOC(CN3CC=C(c4c[nH]c5ccc(NC(C)=O)cc45)CC3)C1CO2 (racemic) [Compound 40] |  |  |  | > 10000 | > 10000 | IC50 (Human 5HT1A receptor; [5]): 3.16 nM
25 | COc1cc2c(cc1OCCOC(C)=O)OCC1C2=NOC1CN1CCC(c2c[nH]c3ccc(F)cc23)CC1 (racemic) [Compound 48] |  |  |  | 158 | 79.4 | IC50 (Human 5HT1A receptor; [5]): 1.58 nM
26 | COc1ccc2[nH]cc(C3CCN(CC4ON=C5c6cc(OC)c(OC)cc6OCC54)CC3)c2c1 (racemic) [Compound 8] |  |  |  | > 1000 | 1260 | IC50 (Human 5HT1A receptor; [5]): 7.94 nM
27 | Fc1ccc2c(C3CCN(CC4ON=C5c6ccc(NCCN7CCCC7)cc6OCC54)CC3)c[nH]c2c1 (racemic) [Compound 51] | 8.2 | 7.7 | 7.9 |  |  | 
28 | CCOC(=O)CNC(=O)Nc1ccc2[nH]cc(C3=CCN(CC4ON=C5c6cc(OC)c(OC)cc6OCC54)CC3)c2c1 (racemic) [Compound 39] | <5 | 7.8 | <5 |  |  | 
29 | COc1cc2c(cc1OC)C1=NOC(CN3CCC(c4c[nH]c5ccc(O)cc45)CC3)C1CO2 (racemic) [Compound 54] |  |  |  | 398 | 63.1 | 
